The supplement of paper PMC13380429

Tests used:
Conditions in all cases: 72 h
U2OS [1] = experiment: cell viability relative to DMSO; higher = less toxic
HepG2 [2] = experiment: as above
Caco-2 [3] = experiment: as above
Vero E6 [4] = experiment: as above
Calu-3 [5] = experiment: as above
U2OS [6] = experiment: relative viability EC50 (midpoint between 100% and the lowest measured viability); higher = less toxic
HepG2 [7] = experiment: as above
Caco-2 [8] = experiment: as above
Vero E6 [9] = experiment: as above
Calu-3 [10] = experiment: as above
U2OS [11] = experiment: drug sensitivity score (DSS) for viability; higher = more toxic; extreme values may be limits of the assay
HepG2 [12] = experiment: as above
Caco-2 [13] = experiment: as above
Vero E6 [14] = experiment: as above
Calu-3 [15] = experiment: as above

Question: Which cell viability (U2OS [1]; 1 nM) does the source give for `CCOC(=O)C(=O)Nc1cccc(OC)c1C(N)=O` here?
Answer: The cell viability was 98.9%.

Question: And the cell viability (U2OS [1]; 10 nM)?
Answer: Its cell viability is 98.9%.

Question: What about the cell viability (U2OS [1]; 100 nM) of the same molecule?
Answer: Its cell viability is 96%.

Question: What about the cell viability (U2OS [1]; 1000 nM) of the same molecule?
Answer: Its cell viability is 101%.

Question: What about the cell viability (U2OS [1]; 10000 nM) of the same molecule?
Answer: The cell viability was 97.6%.

Question: And the cell viability (HepG2 [2]; 1 nM)?
Answer: Its cell viability is 102%.

Question: And the cell viability (HepG2 [2]; 10 nM)?
Answer: Its cell viability is 96.7%.

Question: What about the cell viability (HepG2 [2]; 100 nM) of the same molecule?
Answer: Its cell viability is 93.2%.

Question: What about the cell viability (HepG2 [2]; 1000 nM) of the same molecule?
Answer: Its cell viability is 102%.

Question: What about the cell viability (HepG2 [2]; 10000 nM) of the same molecule?
Answer: The cell viability was 104%.

Question: And the cell viability (Caco-2 [3]; 1 nM)?
Answer: The cell viability was 83.3%.

Question: And the cell viability (Caco-2 [3]; 10 nM)?
Answer: Its cell viability is 96.6%.

Question: And the cell viability (Caco-2 [3]; 100 nM)?
Answer: Its cell viability is 103%.

Question: And the cell viability (Caco-2 [3]; 1000 nM)?
Answer: Its cell viability is 104%.

Question: And the cell viability (Caco-2 [3]; 10000 nM)?
Answer: The cell viability was 102%.

Question: And the cell viability (Vero E6 [4]; 1 nM)?
Answer: Its cell viability is 103%.

Question: And the cell viability (Vero E6 [4]; 10 nM)?
Answer: Its cell viability is 94.9%.

Question: And the cell viability (Vero E6 [4]; 100 nM)?
Answer: The cell viability was 108%.

Question: What about the cell viability (Vero E6 [4]; 1000 nM) of the same molecule?
Answer: The cell viability was 105%.

Question: What about the cell viability (Vero E6 [4]; 10000 nM) of the same molecule?
Answer: Its cell viability is 106%.

Question: And the cell viability (Calu-3 [5]; 1 nM)?
Answer: The cell viability was 83.7%.

Question: And the cell viability (Calu-3 [5]; 10 nM)?
Answer: Its cell viability is 95.3%.

Question: And the cell viability (Calu-3 [5]; 100 nM)?
Answer: The cell viability was 91.2%.

Question: And the cell viability (Calu-3 [5]; 1000 nM)?
Answer: Its cell viability is 97.5%.

Question: And the cell viability (Calu-3 [5]; 10000 nM)?
Answer: The cell viability was 88.8%.

Question: What about the “relative viability EC50” value (U2OS [6]) of the same molecule?
Answer: The value was > 10 µM.

Question: What about the “relative viability EC50” value (HepG2 [7]) of the same molecule?
Answer: The value was > 10 µM.

Question: What about the “relative viability EC50” value (Caco-2 [8]) of the same molecule?
Answer: The value was > 10 µM.

Question: What about the “relative viability EC50” value (Vero E6 [9]) of the same molecule?
Answer: Its value is > 10 µM.

Question: What about the “relative viability EC50” value (Calu-3 [10]) of the same molecule?
Answer: The value was > 10 µM.

Question: And the drug sensitivity score (U2OS [11])?
Answer: The drug sensitivity score was 0.

Question: What about the drug sensitivity score (HepG2 [12]) of the same molecule?
Answer: The drug sensitivity score was 0.

Question: And the drug sensitivity score (Caco-2 [13])?
Answer: Its drug sensitivity score is 0.

Question: What about the drug sensitivity score (Vero E6 [14]) of the same molecule?
Answer: Its drug sensitivity score is 0.

Question: And the drug sensitivity score (Calu-3 [15])?
Answer: The drug sensitivity score was 0.

Question: How did the cell viability (U2OS [1]; 1 nM) turn out when `NS(=O)(=O)c1cc2c(cc1Cl)NC(CC1CCCC1)NS2(=O)=O` (stereo not given) [cyclopenthiazide] was run?
Answer: The cell viability was 100%.

Question: And the cell viability (U2OS [1]; 10 nM)?
Answer: The cell viability was 104%.

Question: And the cell viability (U2OS [1]; 100 nM)?
Answer: The cell viability was 98.8%.

Question: What about the cell viability (U2OS [1]; 1000 nM) of the same molecule?
Answer: Its cell viability is 107%.

Question: And the cell viability (U2OS [1]; 10000 nM)?
Answer: The cell viability was 96.6%.

Question: And the cell viability (HepG2 [2]; 1 nM)?
Answer: Its cell viability is 111%.

Question: What about the cell viability (HepG2 [2]; 10 nM) of the same molecule?
Answer: The cell viability was 103%.

Question: What about the cell viability (HepG2 [2]; 100 nM) of the same molecule?
Answer: The cell viability was 101%.

Question: And the cell viability (HepG2 [2]; 1000 nM)?
Answer: The cell viability was 99.1%.

Question: What about the cell viability (HepG2 [2]; 10000 nM) of the same molecule?
Answer: Its cell viability is 102%.

Question: What about the cell viability (Caco-2 [3]; 1 nM) of the same molecule?
Answer: The cell viability was 102%.

Question: And the cell viability (Caco-2 [3]; 10 nM)?
Answer: Its cell viability is 106%.

Question: And the cell viability (Caco-2 [3]; 100 nM)?
Answer: Its cell viability is 90.4%.

Question: And the cell viability (Caco-2 [3]; 1000 nM)?
Answer: The cell viability was 98.6%.

Question: What about the cell viability (Caco-2 [3]; 10000 nM) of the same molecule?
Answer: The cell viability was 90.4%.

Question: What about the cell viability (Vero E6 [4]; 1 nM) of the same molecule?
Answer: The cell viability was 102%.

Question: And the cell viability (Vero E6 [4]; 10 nM)?
Answer: The cell viability was 91%.

Question: And the cell viability (Vero E6 [4]; 100 nM)?
Answer: The cell viability was 98.9%.

Question: What about the cell viability (Vero E6 [4]; 1000 nM) of the same molecule?
Answer: Its cell viability is 94.9%.

Question: What about the cell viability (Vero E6 [4]; 10000 nM) of the same molecule?
Answer: Its cell viability is 99.9%.

Question: What about the cell viability (Calu-3 [5]; 1 nM) of the same molecule?
Answer: The cell viability was 96.8%.

Question: And the cell viability (Calu-3 [5]; 10 nM)?
Answer: The cell viability was 105%.

Question: What about the cell viability (Calu-3 [5]; 100 nM) of the same molecule?
Answer: The cell viability was 97.6%.

Question: What about the cell viability (Calu-3 [5]; 1000 nM) of the same molecule?
Answer: The cell viability was 97.7%.

Question: And the cell viability (Calu-3 [5]; 10000 nM)?
Answer: Its cell viability is 96.4%.

Question: And the “relative viability EC50” value (U2OS [6])?
Answer: Its value is > 10 µM.

Question: What about the “relative viability EC50” value (HepG2 [7]) of the same molecule?
Answer: Its value is > 10 µM.

Question: And the “relative viability EC50” value (Caco-2 [8])?
Answer: The value was > 10 µM.

Question: And the “relative viability EC50” value (Vero E6 [9])?
Answer: Its value is > 10 µM.

Question: And the “relative viability EC50” value (Calu-3 [10])?
Answer: Its value is > 10 µM.

Question: What about the drug sensitivity score (U2OS [11]) of the same molecule?
Answer: Its drug sensitivity score is 0.

Question: What about the drug sensitivity score (HepG2 [12]) of the same molecule?
Answer: Its drug sensitivity score is 0.

Question: What about the drug sensitivity score (Caco-2 [13]) of the same molecule?
Answer: Its drug sensitivity score is 0.

Question: And the drug sensitivity score (Vero E6 [14])?
Answer: The drug sensitivity score was 0.

Question: And the drug sensitivity score (Calu-3 [15])?
Answer: The drug sensitivity score was 0.

Question: Which cell viability (U2OS [1]; 1 nM) does the source give for `CC(CN(C)C)CN1c2ccccc2CCc2ccccc21` (stereo not given) [trimipramine] here?
Answer: The cell viability was 98.7%.

Question: What about the cell viability (U2OS [1]; 10 nM) of the same molecule?
Answer: The cell viability was 96.4%.

Question: And the cell viability (U2OS [1]; 100 nM)?
Answer: Its cell viability is 102%.

Question: And the cell viability (U2OS [1]; 1000 nM)?
Answer: The cell viability was 98.1%.

Question: And the cell viability (U2OS [1]; 10000 nM)?
Answer: The cell viability was 97.1%.

Question: And the cell viability (HepG2 [2]; 1 nM)?
Answer: The cell viability was 103%.

Question: What about the cell viability (HepG2 [2]; 10 nM) of the same molecule?
Answer: The cell viability was 104%.

Question: What about the cell viability (HepG2 [2]; 100 nM) of the same molecule?
Answer: Its cell viability is 94.3%.

Question: And the cell viability (HepG2 [2]; 1000 nM)?
Answer: The cell viability was 101%.

Question: What about the cell viability (HepG2 [2]; 10000 nM) of the same molecule?
Answer: The cell viability was 89.7%.

Question: And the cell viability (Caco-2 [3]; 1 nM)?
Answer: Its cell viability is 95.6%.

Question: And the cell viability (Caco-2 [3]; 10 nM)?
Answer: Its cell viability is 87.1%.

Question: And the cell viability (Caco-2 [3]; 100 nM)?
Answer: Its cell viability is 98%.

Question: What about the cell viability (Caco-2 [3]; 1000 nM) of the same molecule?
Answer: Its cell viability is 102%.

Question: What about the cell viability (Caco-2 [3]; 10000 nM) of the same molecule?
Answer: The cell viability was 93.7%.

Question: What about the cell viability (Vero E6 [4]; 1 nM) of the same molecule?
Answer: The cell viability was 103%.

Question: And the cell viability (Vero E6 [4]; 10 nM)?
Answer: The cell viability was 101%.

Question: And the cell viability (Vero E6 [4]; 100 nM)?
Answer: The cell viability was 97.6%.

Question: And the cell viability (Vero E6 [4]; 1000 nM)?
Answer: The cell viability was 96.8%.

Question: And the cell viability (Vero E6 [4]; 10000 nM)?
Answer: The cell viability was 89.8%.

Question: What about the cell viability (Calu-3 [5]; 1 nM) of the same molecule?
Answer: The cell viability was 92.3%.

Question: What about the cell viability (Calu-3 [5]; 10 nM) of the same molecule?
Answer: The cell viability was 101%.

Question: And the cell viability (Calu-3 [5]; 100 nM)?
Answer: The cell viability was 105%.

Question: And the cell viability (Calu-3 [5]; 1000 nM)?
Answer: The cell viability was 105%.

Question: And the cell viability (Calu-3 [5]; 10000 nM)?
Answer: The cell viability was 89.4%.

Question: And the “relative viability EC50” value (U2OS [6])?
Answer: Its value is > 10 µM.

Question: And the “relative viability EC50” value (HepG2 [7])?
Answer: Its value is > 10 µM.

Question: And the “relative viability EC50” value (Caco-2 [8])?
Answer: Its value is > 10 µM.

Question: What about the “relative viability EC50” value (Vero E6 [9]) of the same molecule?
Answer: The value was > 10 µM.

Question: What about the “relative viability EC50” value (Calu-3 [10]) of the same molecule?
Answer: The value was > 10 µM.

Question: And the drug sensitivity score (U2OS [11])?
Answer: Its drug sensitivity score is 0.

Question: And the drug sensitivity score (HepG2 [12])?
Answer: Its drug sensitivity score is 0.

Question: What about the drug sensitivity score (Caco-2 [13]) of the same molecule?
Answer: The drug sensitivity score was 0.

Question: What about the drug sensitivity score (Vero E6 [14]) of the same molecule?
Answer: Its drug sensitivity score is 0.

Question: What about the drug sensitivity score (Calu-3 [15]) of the same molecule?
Answer: The drug sensitivity score was 0.
